Measured values reported in patent US9969741B2, “Pyrazolotriazines as inhibitors of nucleases” (MASARYKOVA UNIVERZITA, priority 2014, dated 2018).

Molecular target: T1, EXO1 (Homo sapiens, UniProt Q9UQ84)
T1 construct: made in house; host or cells: Escherichia coli BL21 (RIPL)
T1 sequence (Q9UQ84 1-846): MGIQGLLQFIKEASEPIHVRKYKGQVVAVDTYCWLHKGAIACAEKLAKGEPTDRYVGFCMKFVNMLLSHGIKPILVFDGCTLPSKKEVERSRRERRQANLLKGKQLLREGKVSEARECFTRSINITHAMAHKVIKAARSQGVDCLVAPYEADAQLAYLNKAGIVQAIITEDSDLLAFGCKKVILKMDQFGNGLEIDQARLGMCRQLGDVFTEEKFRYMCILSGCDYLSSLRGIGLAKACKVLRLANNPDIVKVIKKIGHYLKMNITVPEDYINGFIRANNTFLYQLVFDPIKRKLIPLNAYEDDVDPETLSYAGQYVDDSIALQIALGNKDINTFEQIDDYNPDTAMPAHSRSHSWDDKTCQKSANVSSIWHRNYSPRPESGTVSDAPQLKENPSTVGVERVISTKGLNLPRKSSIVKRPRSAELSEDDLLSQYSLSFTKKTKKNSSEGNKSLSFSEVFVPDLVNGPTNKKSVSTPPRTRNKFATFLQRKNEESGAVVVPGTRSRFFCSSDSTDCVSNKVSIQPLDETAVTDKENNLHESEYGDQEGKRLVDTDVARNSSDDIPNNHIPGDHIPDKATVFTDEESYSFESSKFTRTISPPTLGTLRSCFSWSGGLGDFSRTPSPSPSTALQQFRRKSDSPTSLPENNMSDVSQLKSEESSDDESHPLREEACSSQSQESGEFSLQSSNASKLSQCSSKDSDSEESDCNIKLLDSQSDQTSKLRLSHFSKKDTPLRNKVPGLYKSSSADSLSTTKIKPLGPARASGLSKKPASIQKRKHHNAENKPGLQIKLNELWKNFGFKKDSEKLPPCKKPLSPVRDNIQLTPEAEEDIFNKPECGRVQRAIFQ
Assay: Nuclease inhibition assay, EXO1 (3′ OH fluorescent DNA substrate, gel readout)
Type: biochemical
Conditions: 5 nM enzyme, 5 nM 3′ OH substrate, 15 min at 30° C.
Text: In vitro assays were used for the determination of compound's IC50 values for inhibition of individual nucleases, i.e., MUS81/EME1, FEN1, EXO1, and MRE11. To generate IC50 values, concentration of compound was plotted against relative nuclease activity (in %). The dose-response curves were generated from inhibition data, from 5 point serial dilutions of inhibitory compounds, each in triplicate and fitted to a standard sigmoid curve. IC50 values were derived by standard nonlinear regression analysis.
All tested compounds were diluted in 100% DMSO (dimethylsulfoxide) to prepare working stocks with different concentrations. To keep the DMSO concentration constant in every reaction, always 0.5 μl of the compound stock was added to the reaction buffer. The reaction buffer differs depending on the enzyme tested. Also concentration of the compounds in the reaction depends on the particular enzyme, since the inhibitory effect of the compounds vary between the enzymes. Nevertheless, always doubling dilutions in the range 200-0.8 μM was used. The compound was added as the first component in the reaction buffer, followed by the enzyme addition. […]
For this experiment we prepared short fluorescently labeled oligonucleotide-based DNA substrates with specific structures reflecting the biochemical activities of tested individual nucleases (Table 1). […] For visualization, each substrate was labeled by fluorescent dye (fluorescein), which can be detected in the gel using appropriate imaging system (FLA-9000, Fuji) with filters for particular wavelengths (excitation: 485 nm, emission: 535 nm).
Nuclease assays were performed in reaction buffer specific for particular enzyme: MUS81/EME1 (50 mM Tris pH=7.5, 5 mM MgCl2, 1 mM DTT a 100 μg/ml BSA), MRE11 (30 mM Bis-Tris pH=7.0, 50 μg/ml BSA, 1 mM DTT a 250 μM MnCl2), EXO1 and FEN1 (50 mM Tris pH=7.5, 1 mM MgCl2, 1 mM DTT a 100 μg/ml BSA). […] Fluorescently labeled DNA was detected by FLA-9000 scanner (Fuji) and the result was evaluated using Multi-Gauge V3.2 software (Fuji). […]

For `CCc1nn2c(N)c(-c3nc4ccccc4[nH]3)nnc2c1-c1ccc(F)cc1` [Preparative Example 5A], the IC50 was > 50 µM.

`Nc1c(-c2nc3ccccc3[nH]2)nnc2cc(-c3ccccc3)nn12` [Preparative Example 5C] was tested, and the IC50 was > 50 µM.

`Nc1c(-c2nc3ccccc3[nH]2)nnc2cc(-c3cccc4ccccc34)nn12` [Preparative Example 5K] was tested, and the IC50 was > 50 µM.
